{cycp1} = methylcyclopropene carbamate coupled through the 3' amine; {3AmMO} = amino modifier (IDT nomenclature)
Legend:
[1] = Fluorescence turn-on spectroscopy of tetrazine-Alexa Fluor 488 with Ac4ManNCyc; format: physicochemical
Method: Mannosamine-cyclopropene (Ac4ManNCyc) and tetrazine-Alexa-Fluor 488 stocks were prepared at 1 and 0.1 mM, respectively, in phosphate-buffered saline (PBS) pH 7.4. Fluorescence turn-on was measured using a Perkin Elmer LD-45 spectrometer, with the excitation wavelength set to 480/5 nm, and emission scanned over 490-620 nm (5-nm slit width) at a rate of 50 nm/min. Reaction conditions were 50 μM tetrazine-Alexa-Fluor 488 and 100 μM Ac4ManNCyc in PBS pH 7.4 buffer at room temperature.

[2] = tested on: LS174T cells; test: Live-cell microscopy of metabolically incorporated cyclopropene sugar; format: cell-based, human; conditions: 100 μM for 48 hours, then 10 μM tetrazine-Alexa Fluor 488 for 1 hour
Method: (§1) SKBR3 and LS 174T cells were grown in cDMEM media supplemented with 10% fetal bovine serum, 1% L-glutamine, 1% penicillin/streptomycin. Cells were incubated in 5.0% carbon dioxide, 95% humidity at 37° C. Generally, cells were grown in T-75 tissue culture flasks, seeded at densities between 500,000 and 750,000 cells per flask (cells were quantified with the Life Technologies Countess automated cell counter). The cells were trypsinized with TrypLE Express and resuspended in cDMEM. Cells were allowed to incubate for two days before supplementing with Ac4ManNCyc (N-cyclopropeneacetylmannosamine) or Ac4GlcNAz (N-azidoacetylglucosamine). The cells were then analyzed via confocal microscopy and flow cytometry as described below.
(§2) The SKBR3 and LS174T cells were incubated for two days in the presence of 100 μM of Ac4ManNCyc and/or 50 μM Ac4GlcNAz on a Lab-Tek chamber slide maintained in cDMEM medium. Treatment of cells with tunicamycin was done by preparing a 0.2 mg/mL stock in DMSO, which was diluted to a final working concentration of 1.2 μM tunicamycin in cDMEM (0.5% DMSO). Cells were washed 3× with phosphate-buffered saline (PBS) and incubated for 1 hour at 37° C. in 10 μM tetrazine-BODIPY TMR-X, 10 μM tetrazine-Alexa flour 488 and/or 15 μM dibenzocyclooctyne (DIBO)-Alexa Fluor 647 in cDMEM. The media was aspirated, and cells were washed twice with PBS before imaging. All photos were collected with an Olympus FV1000 confocal microscope using ImageJ 1.45j software package.
(§3) In order to determine if Ac4ManNCyc was incorporated effectively by cells, we incubated adherent human breast cancer (SKBR3) and colon cancer (LS174T) cell lines with 100 μM Ac4ManNCyc for 48 hours in cell media and serum. After incubation, cells were thoroughly washed and then reacted for 1 hour with 10 μM of fluorogenic Alexa Fluor 488 tetrazine. After a second wash, cells were imaged by confocal microscopy (Olympus FV1000). […] In order to ensure that the staining was due to glycan uptake of the probe, we also performed controls by exposing cells to 100 μM Ac4ManNCyc and inhibiting uptake by using glycosylation inhibitors (ie. tunicamycin and αBnGalNAc) or 20 mM of ManNAc as a competitive substrate.^[14] […] These experiments provide evidence that the staining patterns are reporting on glycosylation and uptake of the unnatural cyclopropene mannosamine. We also performed additional studies using flow cytometry to quantitate the relative uptake of sugars that corroborated the imaging data.

[3] = tested on: SKBR3 cells; test: as above; format: cell-based, human; conditions: SKBR3; 100 μM for 48 hours, then 10 μM tetrazine-Alexa Fluor 488 for 1 hour
Method: as §1, §2, §3

[4] = tested on: SKBR3 cells; test: Analysis of cell surface cyclopropenes by flow cytometry; format: cell-based, human; conditions: followed by tetrazine imaging probe
Method: After the incubating the adherent SKBR3 cells in 100 μM of Ac4ManNCyc (1.2 μM tunicamycin and/or 1 mM aBnGalNAc was used in experiments requiring glycosylation inhibitors) they were washed twice in PBS and then incubated in 10 μM of tetrazine-Alexa flour 488 for 1 hour at 37° C. Control cells were not exposed to Ac4ManNCyc and incubated in 10 μM of tetrazine-Alexa flour 488 for 1 hour at 37° C. Cells were then resuspended in 1-2 ml of cDMEM (5.0×10^5 to 1.0×10^6 per ml) using a rubber policeman. The cells were passed through a 25 gauge syringe to ameliorate excessive clumping, and subjected to analysis by flow cytometry using a 200 mW 488 nm blue solid state laser on the Partec Space Flow Cytometer (Partec).

[5] = tested on: LS174T human colon cancer cells; test: Simultaneous imaging of two metabolically incorporated unnatural sugars and cross reactivity; format: cell-based
Method: as §2
Finally, we tested whether or not we could simultaneously image two different metabolically incorporated unnatural sugar derivatives, Ac4ManNCyc and tetraacetylated N-azidoacetylgalactosamine (Ac4GalNAz). […] Recent experimental work has shown that alkenes and azides can be mutually orthogonal to each other, even when using highly strained trans-cyclooctenes. Additionally, the Houk group has calculated that methyl-cyclopropene handles, such as those we have previously developed, should be mutually orthogonal to azide cyclooctyne reactions. We incubated LS174T human colon cancer cells with 100 μM Ac4ManNCyc and Ac4GalNAz for 2 days. After incubation, we sequentially stained the cells with 10 μM tetrazine-Alexa Fluor 488 and 15 μM dibenzocyclooctyne (DIBO) 647. […] Similar results were obtained with the SKBR3 cell line. […] The ability to simultaneously label two different metabolically incorporated molecules using live-cell compatible inverse-Diels-Alder and Huisgen reactions expands the capabilities of bioorthogonal metabolic imaging.

[6] = Storage stability of cyclopropene derivatives; format: physicochemical; conditions: stored at −20° C.
[7] = Reaction rate determination of cyclopropenes with tetrazine 3; format: physicochemical
Method: A tetrazine 3 stock solution was prepared in DMSO and used to prepare tetrazine solutions at 0.6 mM final concentration in 12% v/v DMSO in ddH2O. Reactions were initiated with excess cyclopropene at final concentrations of 6.0, 8.0, and 10.0 mM. The disappearance of the tetrazine absorption peak at 520 nm was tracked over the reaction timeframe by measuring the absorption spectra using a NanoDrop 2000c spectrophotometer (Thermo Scientific). Samples were placed in a quartz cuvette with 10-mm pathlength and stirred at the maximum speed setting of the instrument. The temperature was uncontrolled by the instrument for room temperature (20° C.) measurements, and set and equilibrated at 37° C. for the higher temperature experiments.
Absorption spectra were measured manually over time. Absorption peak signal was taken as the average of measurements at 519-521 nm. Baseline signal was determined as the sloping line connecting the measured background levels preceding and following the tetrazine peak (410-430 nm and 590-610 nm, respectively). Final peak intensity value was taken as the signal above the baseline. Reaction rates were obtained by fitting the exponential decays of tetrazine peak absorption intensity as a pseudo first order reaction. Nonlinear data fits were performed with GraphPad Prism. Tetrazine reactions with cyclopropene carbamate 5 were carried out at 20 and 37° C. (data points and corresponding fitted curves at 20° C. in FIG. 51, 37° C. in FIG. 2c). Tetrazine reactions with cyclopropene carboxamide 2 were done at 37° C. ([…]. A representative comparison fit is shown for cyclopropenes 5 and 2 at 8.0 mM concentration reacting at 37° C. with 0.6 mM tetrazine.

[8] = Stability of cyclopropene 5 by 1H NMR; format: physicochemical; conditions: 37° C., over 24 hours
Method: Cyclopropene 5 was kept at 37° C. in D2O: DMSO-d6=10:1 and 1H NMR was taken over a period of 24 h at the following time points: 0.0, 0.5, 1.0, 1.5, 3.0, 6.0 and 24.0 h. By comparing the peak abundance of the cyclopropene alkene proton (6.21 ppm) at different time points, we determined the stability of cyclopropene 5 (Figure S2).

[9] = tested on: 27mer DNA template; test: Melting temperatures of DNA template with probes and ligation products; format: physicochemical; conditions: hybridization target against 27mer template; 250 mM NaCl in buffer; 1 μM each oligonucleotide
Method: Melting temperature of probes and ligation products in hybridization buffer (50 mM MOPS pH 7.5, 250 mM NaCl) were measured using a Beckman-Coulter DU 640 spectrophotometer equipped with a high performance temperature controller and micro auto six-cell holder. Samples at 1 μM concentration of each oligonucleotide were heated to 90° C. and slowly cooled to RT over 1-1.5 h before the measurements. Melting temperature values were obtained by cooling samples from 90° C. to 20° C. at the rate of 1° C./min and measuring at 1° C. increments with each read averaged over 1 s.

[10] = tested on: 27mer DNA template; test: Template-driven ligation of tetrazine and cyclopropene oligonucleotide probes (fluorescence); format: biochemical
Method: (§4) Tetrazine and cyclopropene-modified oligonucleotide probes were ligated in the presence of a DNA or RNA template at a 1:1:1 ratio. Reactions were done in varying solution and temperature conditions, as indicated. Main hybridization buffer was 50 mM MOPS at pH 7.5, 250 mM NaCl. Ligation reactions with a mismatched DNA template were performed in 5 mM MgCl2 in standard 1× Tris-borate buffer (purchased as 10× UltraPure TBE from Invitrogen: 1.0 M Tris pH 8.4, 0.9 M Boric acid, 10 mM EDTA).
(§5) Ligation reactions were done in standard 96 fluorescence well plates using SpectraMax GeminiXS (Molecular Devices). Temperature was set by the instrument. Where indicated by standard deviations, experiments were performed multiple times. In order to avoid any secondary structure artifacts, DNA or RNA template with added tetrazine probe was first heated to 90° C. and crash-cooled on ice for 2 min right before the experiment. Each well was filled with a total of 100 μL reaction solution, and reactions were timed from the addition of the cyclopropene probe as the last step before starting the measurements. Wells were scanned every 20-60 s depending on the speed of the reactions by using 485 nm excitation and 538 nm emission with the cutoff set at 495 nm. Control reactions without template were done in parallel each time. Buffer-only well intensities were subtracted from the measured raw data before analysis. Data was analyzed using GraphPad Prism 6.0 by applying a nonlinear fit of a one-phase association to each curve where fluorescein signal during reaction was measured.

[11] = tested on: 27mer RNA template; test: Ligation of oligonucleotide probes with an RNA template; format: biochemical; conditions: ligating 13merF15′tet and 13mer3′cycp1
Method: as §4
as §5, with “Wells were scanned every 20-60 s depending on the speed of the reactions by using 485 nm excitation and 538 nm emission with the cutoff set at 495 nm. Control reactions without template were done in parallel each time.” left out

[12] = tested on: singly-mismatched 27mer template; test: Single nucleotide mismatch discrimination in probe ligation; format: biochemical; conditions: 5 mM MgCl2 in Tris-borate buffer at 37° C.; reaction with 13merF15′tet
Method: as §4
A single nucleotide mismatch effect was determined on reaction completion in discriminating conditions from FIG. 2C and is depicted in Figure S8. TBE 1× buffer (pH 8.4, Invitrogen) with 5 mM MgCl2 solution at 37° C. was used for incubation of 13mer5′tet with 13mer3′cycp1 in the presence of a fully matched template, or a sample containing a fully matched template and a single mismatched template, and a sample with only a singly-mismatched template. All DNA concentrations were kept at 1 μM. Fluorescence measurements were taken using a Perkin Elmer LD-45 spectrophotometer, as described above, with the samples in the quartz cuvettes warmed with attached circulating water bath. Initial timepoints were taken of prewarmed samples prior to template addition, and subtracted from the final intensity values (Figure S8).

## 1,3,4,6-Tetra-O-acety-N-cyclopropene tag-D-mannosamine [Ac4ManNCyc]
[1]
  fluorogenic response of quenched tetrazine probe: elicits fluorogenic responses
[2]
  cell surface staining by confocal microscopy: bright surface staining
[3]
  cell surface staining by confocal microscopy: bright surface staining
[4]
  fluorescence intensity by flow cytometry compared to controls: increased fluorescence intensity
[5]; 100 μM, 2 days, stained with 10 μM tetrazine-Alexa Fluor 488 and 15 μM DIBO 647
  cell surface staining after co-incubation of both sugars: cell surface staining in both the fluorescent channels
[5]; cells incubated with only this sugar
  cross reactivity: surface staining with DIBO 647: minimal surface staining

## 2-methyl-cyclopropene carbamate [cyclopropene 5]
[6]
  storage stability at −20° C.: without degradation
[7]; 20° C., 12% DMSO by volume
  rate constant: 7 ± 1 M⁻¹ s⁻¹
[7]; 37° C.
  improvement of rate constant compared to cyclopropene carboxamide 2: approximately two orders of magnitude
[7]; 37° C., water/DMSO (12% DMSO by volume)
  second order rate constant: 13 ± 2 M⁻¹ s⁻¹
[8]
  degradation in aqueous solutions: no significant degradation

## 13mer3′cycp1: 5′-ATT CAA CAC TAC C/3AmMO/-cyclopropene-3′ (SEQ ID NO:5), methyl-cyclopropene carbamate cycp1 (DNA ATTCAACACTACC; DNA, 3' {3AmMO}-{cycp1}, backbone not given here)
[9]
  Melting T: 50.4 °C
[10]; disappearance of 13merF15′tet and appearance of product
  reaction yield by LC/MS: approximately 92%
[10]; estimated assuming the reaction is limited by ligation
  effective molarity of the intramolecular reaction: 53 mM
[10]; reaction with 13merF15′tet in the presence of DNA template
  observed first order rate constant of DNA-templated reaction: 0.019 ± 0.001 s⁻¹
[10]; reaction with 13merF15′tet, 1 μM 27mer template
  time at which the fluorescence signal plateaus: about 200 s
[11]
  ligation with RNA template compared with DNA template: equally effective
[12]
  effect of single mismatch (T to G) in template on reaction rate: only a moderate difference

Source: US9533957B2, “Tetrazines and method of synthezising the same” (The Regents of the University of California, priority 2012, dated 2017)
